Experimental data taken from paper PMC8131363 (Scientific Reports, 2021).
Like-named read-outs stand apart in the source and are kept apart here.

How the values were obtained:
[1] = biological target: T1, cCaSR (Felis catus, UniProt C7FF08)
T1 sequence (C7FF08 1-1081): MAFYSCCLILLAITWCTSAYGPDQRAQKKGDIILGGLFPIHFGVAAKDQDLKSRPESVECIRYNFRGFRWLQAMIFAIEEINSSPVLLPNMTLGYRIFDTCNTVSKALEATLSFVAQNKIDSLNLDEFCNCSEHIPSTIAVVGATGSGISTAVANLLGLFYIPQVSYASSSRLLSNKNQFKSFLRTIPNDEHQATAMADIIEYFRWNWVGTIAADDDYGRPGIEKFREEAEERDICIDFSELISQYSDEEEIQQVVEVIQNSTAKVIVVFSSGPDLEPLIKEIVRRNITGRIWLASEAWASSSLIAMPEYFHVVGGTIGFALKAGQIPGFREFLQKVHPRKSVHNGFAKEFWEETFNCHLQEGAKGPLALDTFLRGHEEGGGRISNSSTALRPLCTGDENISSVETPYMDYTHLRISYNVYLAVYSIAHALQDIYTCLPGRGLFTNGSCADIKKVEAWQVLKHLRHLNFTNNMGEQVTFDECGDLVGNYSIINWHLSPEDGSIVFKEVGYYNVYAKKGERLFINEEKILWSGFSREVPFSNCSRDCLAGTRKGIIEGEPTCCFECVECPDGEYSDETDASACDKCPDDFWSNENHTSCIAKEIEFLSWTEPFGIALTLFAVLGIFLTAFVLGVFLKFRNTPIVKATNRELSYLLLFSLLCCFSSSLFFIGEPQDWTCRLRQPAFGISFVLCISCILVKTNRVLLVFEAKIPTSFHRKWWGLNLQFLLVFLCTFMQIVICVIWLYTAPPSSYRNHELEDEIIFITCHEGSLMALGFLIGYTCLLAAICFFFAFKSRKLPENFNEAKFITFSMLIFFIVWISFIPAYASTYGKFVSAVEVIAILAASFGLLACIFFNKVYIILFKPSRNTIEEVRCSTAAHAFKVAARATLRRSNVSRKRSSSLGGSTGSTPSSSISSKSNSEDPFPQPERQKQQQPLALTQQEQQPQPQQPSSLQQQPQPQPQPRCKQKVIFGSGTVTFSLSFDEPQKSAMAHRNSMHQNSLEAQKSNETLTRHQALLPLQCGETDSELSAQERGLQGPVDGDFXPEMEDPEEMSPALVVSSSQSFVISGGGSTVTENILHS

[2] = system: human sensory panel; test: human sensory panel triangle test; assay type: in vivo; settings: humans, CaCl2 8 mM, MgCl2 8 mM; for % correct, triangle test in umami mix: GSH 0.65 mM in MSG/IMP/NaCl mix vs mix blank; for % correct, triangle test in water: GSH 0.65 mM in mineral water vs blank
Method: All solutions were prepared using a commercial mineral water, Highland Spring (Highland Spring group, Blackford, UK) previously tested on our taste sensory panel and found to have the lowest level of inherent taste, thus being the least disruptive to taste tests. All taste-active substances were food-grade or of the highest available purity.
For tests with CaCl2, MgCl2, and GSH, each compound was dissolved directly in water, at 8 mM, 8 mM and 0.65 mM, respectively. Each compound was also tested in a mixture of umami and salty compounds, previously described in kokumi sensory evaluation, composed of 0.02% MSG, 0.02% IMP and 0.07% NaCl.
The human sensory panel experimental protocols were approved by the Waltham Animal Welfare and Ethical Review Board and all methods were carried-out in accordance with all local regulations and guidelines. Informed consent was obtained from all subjects, and all participants were over the legal age of consent. All assessors used for the tests were validated following the process outlined in ISO 8586:2012(E). Briefly, all assessors were evaluated on their capacity to recognise tastants from blank solutions and successfully identify the basic taste modalities presented. The panellists were also assessed on their ability to correctly rank solutions of a tastant in ascending concentration order. The measures for successful validation of panellists were applied to all who completed the assessment.
For the kokumi tastant tests, six tests in all were completed, two with each CaSR agonist chosen CaCl2, MgCl2, or GSH. The number of participating panellists for each test varied between twenty-four and twenty-five. […] No replicate evaluations were done by the same assessor. For each compound, the assessors were presented with […] separate forced choice triangle tests. In the first test, the compound was dissolved in spring water and compared to a blank of pure spring water, in the second the compound was dissolved into the previously described umami mix[8] and compared to a blank of the umami mix. In each separate test, the panellists were presented with the samples in a randomised order to eliminate potential bias. Panellists were presented either two blanks and a sample or two samples and a blank and asked to identify the sample that was different in the triad. Panellists were asked to give a brief description of why the sample chosen was different. If they were unable to detect a difference, the assessors were instructed to choose a sample at random and specify in the description that they were unable to make a difference between the samples[61].
The data was analysed for statistical significance using a standard methodology described in[61]. For this, the number of correct answers were compared to the number of assessors in each test, at the α-risk level chosen for the test. […] As determined by a one tailed test, the minimum number of panellists required to successfully determine difference between samples was thirteen for the chosen α value.
Initially, a contingency table of the number of correct answers and the number of wrong answers was created for each test. Then, Pearson’s chi-square test was then applied to the resulting table, with the probability of a correct answer at random being 1/ 3, while the probability of a wrong answer was 2/ 3.

[3] = biological target: T1, cCaSR; test: cell-based
[4] = GSH at 2.5 mM
[5] = read-out: cCaSR activity, agonist assay, stable inducible cCaSR line, at least three wells
[6] = read-out: cCaSR stable EC50, stably expressed cCaSR, Fig. 6b, > 3 mM = maximal response not reached

**Q.** Which EC50 ([1]; agonist assay, stable inducible cCaSR line, > 0.01 M = maximal response not reached) does the source give for `[Ca+2].[Cl-].[Cl-]` [Ca^2+, CaCl2] here?
**A.** 1620 µM

**Q.** And the EC50 ([1]; read-out: EC50 Ago, Supplementary Table I, agonist assay, > 0.01 M = maximal response not reached)?
**A.** 1620 µM

**Q.** What about the EC50 [1, 5] of the same compound?
**A.** 1000 to 10000 µM

**Q.** And the EC50 [1, 6]?
**A.** 1470 µM

**Q.** And the “% correct, triangle test in umami mix” value [2]?
**A.** 36%

**Q.** And the “% correct, triangle test in water” value [2]?
**A.** 56%

**Q.** What does the source list for `N[C@@H](CCC(=O)N[C@@H](CS)C(=O)NCC(=O)O)C(=O)O` [Glutathione]?
**A.** EC50 ([3]; EC50 (M), agonist assay, stable inducible cCaSR line, > 0.01 M = maximal response not reached): 0.00639 M; EC50 ([3]; EC50 Ago (M), Supplementary Table I, agonist assay, > 0.01 M = maximal response not reached): 0.0064 M; EC50 ([3]; cCaSR activity, agonist assay, stable inducible cCaSR line, at least three wells): 0.001 to 0.01 M; EC50 ([3]; cCaSR stable EC50(mM), stably expressed cCaSR, Fig. 6b, > 3 mM = maximal response not reached): > 0.003 M; % correct, triangle test in umami mix [2]: 58.3%; % correct, triangle test in water [2]: 37.5%; pH of solution [4]: 3.48

**Q.** Which EC50 [1, 5] does the source give for `[Cl-].[Cl-].[Mg+2]` [Mg^2+, MgCl2] here?
**A.** > 10000 µM

**Q.** What about the EC50 [1, 6] of the same compound?
**A.** > 3000 µM

**Q.** And the “% correct, triangle test in umami mix” value [2]?
**A.** 50%

**Q.** What about the “% correct, triangle test in water” value [2] of the same compound?
**A.** 50%
